The text below walks through data of patent US20250360167A1 (Keryx Biopharmaceuticals, Inc., priority 2013, published 2025).

This data set can be described thus: BET active surface area. The data set is classed as physicochemical. The source says: BET theory explains the physical adsorption of gas molecules onto a solid surface. The theory serves as the basis for the measurement of the specific surface area of a material. This theory allows the calculation of surface areas of materials in a very accurate manner and is thus capable of distinguishing differences between separate preparations of what would otherwise appear to be the same material. For example, activated carbon is a form of carbon that has been processed to make it extremely porous and thus to have a very large surface area. Activated carbon has been experimentally determined, using calculations derived from BET theory, to have a surface area of around 3000 m^2 g^−1.

Where [1] appears, read: Table 1, one value given per pair of samples.

In the case of `O=C([O-])CC(O)(CC(=O)[O-])C(=O)[O-].[Fe+3]` [STM-182-1], the “BET Active Surface Area” value under setting [1] is 19.85.
Regarding `O=C([O-])CC(O)(CC(=O)[O-])C(=O)[O-].[Fe+3]` [RFS-12-1], the “BET Active Surface Area” value by setting is: under setting [1], 0.61; (Tables 2 and 3) 0.61 m^2/g.
